test: physchem; conditions: octan-1-ol/water, pH 7.4

Row | Compound | logD
1 | O=C(O)c1cc2ccccc2n1Cc1ccccc1 | 0.78
2 | CCC1(C)CC(=O)NC1=O (stereo not drawn) [ETHOSUXIMIDE] | 0.23
3 | Nc1nc(Nc2ccc3nc(-c4ccc(F)cc4)cc(N)c3c2)cc(-c2cccc(Cl)c2)n1 | 2.5
4 | CC(C)[C@@H](CN1CCCCC1)N(C)C(=O)Cc1ccc(Cl)c(Cl)c1 | 2.87
5 | COc1cccc(COCC(O)CN2CCC(C(N)=O)CC2)c1 (stereo not drawn) | -0.5
6 | Oc1cc(Cl)cc(Cl)c1 | 3.58
7 | O=C(N[C@H]1CN2CCC1CC2)c1ccc(-c2ccccc2)s1 | 1.9
8 | O=C1C=CC(=O)c2c(O)ccc(O)c21 [NAPHTHAZALIN] | 1.91
9 | CNC1=Nc2ncccc2C(c2ncco2)=NC1c1cccs1 (stereo not drawn) | 1.14
10 | Cc1cc(C)n(-c2cccc(Cl)c2C#N)n1 | 3
11 | Oc1cccc(O[C@H]2C[C@H]3CC[C@@H](C2)N3Cc2ccccc2)c1 | 2.3
12 | Cc1c(O[C@H]2C[C@H]3CC[C@@H](C2)N3Cc2ccccc2)cccc1C(N)=O | 1.6
13 | Cc1ccc(CN2[C@@H]3CC[C@H]2C[C@H](Oc2cccc(C(N)=O)c2)C3)s1 | 2.44
14 | NC(=O)c1cccc(O[C@H]2C[C@H]3CC[C@@H](C2)N3CC2CCCCC2)c1 | 1.55

same assay, conditions: octan-1-ol/water, pH 7.4, LogD7.4

Row | Compound | logD
15 | COCCNS(=O)(=O)c1ccc(-c2cnc(N)c(C(=O)Nc3cccnc3)n2)cc1 | 2.26
16 | Cc1ncc(-c2ccnc(Nc3ccc(C#N)cc3)n2)n1C(C)C | 3.62
17 | Cc1noc(C)c1CCC1CCN(S(=O)(=O)CC2(N(O)C=O)CCOCC2)CC1 | 0.9
18 | CC(c1ccccc1)C(Cc1nc2ccccc2[nH]1)c1nc2ccccc2[nH]1 (stereo not drawn) | 4.48
19 | O=C(Nc1ccccn1)c1ccccc1 | 2.2
20 | O=C(N[C@@H]1Cc2ccccc2N(C[C@@H](O)CO)C1=O)c1cc2cc(Cl)sc2[nH]1 | 3.27
21 | O=C1CCOc2nc(C#CC3CCCCC3)ccc21 | 3.3
22 | C[Si](C)(C)C#Cc1cn(C[C@H]2CN(c3ccc(C4=CCS(=O)(=O)CC4)c(F)c3)C(=O)O2)nn1 | 1.26
23 | Nc1ccc2ncccc2c1 | 1.33
24 | NC(=O)Nc1cc(-c2cccc(F)c2F)sc1C(=O)N[C@H]1CCCNC1 | 1.32
25 | COc1ccc(-c2nc3c(NCCCNC(=O)C4CCCC4)c(C(N)=O)cnc3[nH]2)cc1 | 3.13
26 | CNc1nc2ccccc2n1Cc1sc2c(c1C(=O)N1C[C@H](O)CO1)c(=O)n(C)c(=O)n2CC(C)C | 1.77
27 | COc1cc2ncc(C(N)=O)c(Nc3ccccc3Cl)c2cc1OC | 2.89
28 | Fc1cccc(C(COCc2cc(C(F)(F)F)cc(C(F)(F)F)c2)N2CCNCC2)c1 (stereo not drawn) | 3.2
29 | Cc1ccc(-c2ccc(N)nn2)cc1NC(=O)c1ccc(OCc2ccccn2)cc1 | 2.47
30 | Cc1cc(Oc2ccnc(Nc3cccc(N4CCOCC4)c3)c2)c(-c2ccccn2)nc1C | 3.27
31 | Nc1nnc(CCSCCc2nnc(N)s2)s1 | -0.1
32 | COc1cc(C(=O)NCc2ccc(OCCN(C)C)cc2)cc(OC)c1OC [TRIMETHOBENZAMIDE] | 0.74
33 | Cc1ccc(S(=O)(=O)NC(=O)N2CCC(N3CCC(Oc4ccc(Cl)cc4)CC3)CC2)cc1 | 1.6
34 | CCN(C(=O)Cc1ccc(C#N)cc1)C1CCN(CCC(c2ccccc2)c2ccccc2)CC1 | 3.9
35 | O=C(NCC1CCCCCC1)c1cc(-c2cccnc2N2CCC(C(=O)O)CC2)ccc1Cl | 2.53
36 | CCOc1ccc(-c2cnc3n2CCC3)cc1 | 2.65
37 | COc1cccc2[nH]ncc12 | 2.1
38 | CC(C)C(NC(=O)Cn1c(-c2ccccc2)ccc(NS(N)(=O)=O)c1=O)C(=O)C(F)(F)F (stereo not drawn) | 1.17

Row | Compound | logD
39 | O=C(Cc1ccccc1)c1ccc(O)cc1O | 3.09
40 | COCCC(=O)Nc1ccc(Nc2ncc3cc(-c4ccncc4)ccc3n2)cc1 | 2.78
41 | CC(C)Oc1cc(OCCc2cccnc2)cc(C(=O)Nc2ccc(C(=O)O)cn2)c1 | 0.81
42 | Cc1ncc(-c2ccnc(Nc3ccc(C(N)=O)cc3)n2)n1C(C)C | 2.39
43 | Cc1cc(Nc2ccc(F)cc2)nc(N)n1 | 2.08
44 | Cc1c(Cl)ccc(OC2CCN(C[C@H](O)CNC(=O)c3c[nH]c(=O)c4cc(S(C)(=O)=O)ccc34)CC2)c1Cl | 2.83
45 | CCN1CCN(CC(=O)Nc2ccc(-c3cccc4c(=O)cc(N5CCOCC5)oc34)c3sc4ccccc4c23)CC1 | 3.05
46 | N#Cc1cccc(S(=O)(=O)NC(=O)N2CCC(N3CCC(Oc4ccc(Cl)c(Cl)c4)CC3)CC2)c1 | 1.81
47 | CC[C@H](NC(=O)c1c([S+](C)[O-])c(-c2cccc(F)c2)nc2ccccc12)c1ccccc1 (stereo partly drawn) | 3.14
48 | Cn1cnc2cc(C#Cc3ccccc3)cnc21 | 3.5
49 | COc1cc2nnc(C(N)=O)c(Nc3cc(C)ccc3F)c2cc1N1CCN(C)CC1 | 2.57
50 | CNc1c(Br)cnc2[nH]c(-c3ccc(O)cc3)nc12 | 2.47
51 | O=C(Nc1ccc(F)cc1F)c1cc(Cl)ccc1O | 3.6
52 | Cc1c(Sc2ccc(Cl)cc2)c2c(Cl)nccc2n1CC(=O)O | 0.92
53 | N=C(N)NC(=O)c1nc(Cl)c(NCc2ccncc2)nc1N | -0.51
54 | CN[C@H]1CCN(C(=O)c2ccc(Nc3nccc(-c4cnc(C)n4C(C)C)n3)cc2)C1 | 1.22
55 | O=C(O)COc1ccc(Cl)cc1C1CCCCC1 | 0.93
56 | CC1CN(Cc2cc(Cl)ccc2OCC(=O)O)CCN1S(=O)(=O)c1ccccc1 (stereo not drawn) | 0.31
57 | Cc1ccc(NC(=O)c2cccc(OCC(C)C)c2)cc1C(=O)Nc1cccnc1 | 2.81
58 | O=C(Cc1ccccn1)c1ccc(Cl)cc1 | 2.96
59 | COc1cc(F)ccc1-c1cncc(CNC2CCC2)n1 | 2.23
60 | CCCc1c(OCc2cccc(NC(=O)Cc3ccccc3C(=O)O)c2)ccc(C(C)=O)c1O | 2.95
61 | Cn1c(CN2CCC(c3ccccc3)CC2)nc2ccccc21 | 3.6
62 | Nc1ccc(Cl)c(-c2nc3ncccc3o2)c1 | 1.97

Row | Compound | logD
63 | Cc1ccc(NC(=O)c2ccnc(N3CCOCC3)c2)cc1Nc1ccnc(OC2CCN(C)CC2)n1 | 1.8
64 | Cc1c(Sc2ccc(Cl)cc2)c2cc(Cl)ccc2n1Cc1nnn[nH]1 | 3.25
65 | CC(c1cc2ccccc2o1)n1[nH]c(=O)c2[nH]c3cc(Cl)ccc3c(=O)c2c1=O (stereo not drawn) | 2.1
66 | CC(=O)N[C@H](C)c1ccc(Nc2ncc3cc(-c4ccncc4)cc(C)c3n2)cc1 | 3.46
67 | CC(C)(N)C(=O)N[C@H](Cc1c[nH]c2ccccc12)C(=O)N[C@H](Cc1c[nH]c2ccccc12)NC=O [MACIMORELIN] | 1
68 | CCCN(C)c1nc(N2CCC[C@@H](CC(=O)O)C2)ccc1C(=O)NC1CCCCC1 | 2.28
69 | Cn1c(=N)n(CC(=O)c2ccc(Cl)cc2)c2ccccc21 | 1.63
70 | NC(=O)c1ccc(Br)cc1 | 1.75
71 | COC(=O)CCCCCCC(=O)Nc1ccc2c(c1)C(=O)C(=O)c1ccccc1-2 | 2.9
72 | Cc1ccc(C(=O)NC2CCN(c3cc(C(N)=O)cc(Cl)n3)CC2)[nH]1 | 2.64
73 | C1=CCC(c2cc3ccccc3o2)CNC1 (stereo not drawn) | 1.94
74 | O=C(NC[C@@H](O)CN1CCC(Oc2ccc(Cl)c(Cl)c2)CC1)c1cn2cc(F)ccc2n1 | 3.33
75 | Cn1cc(-c2cccc(C[C@H](NC(=O)c3cc(C(C)(C)C)nn3C)C(=O)NCC#N)c2)cn1 | 2.6
76 | Cc1nc2c(C#N)cnn2c(O)c1Cc1ccccc1 | 0.68
77 | COc1cc(N2CCN(C(C)=O)CC2)ccc1Nc1nccc(-c2cnc3ccccn23)n1 | 3
78 | Cc1ccc(-c2cn(C)cn2)cc1NC(=O)c1ccc(OCc2ccccn2)cc1 | 2.54
79 | CC1(C)Cc2c(-c3ccccc3)c(-c3ccc(Cl)cc3)c(CC(=O)O)n2C1 [LICOFELONE] | 3.07
80 | Nc1ccc(/N=N/c2ccccc2)c(N)n1 [PHENAZOPYRIDINE] | 3.22
81 | CCC(CC)NC(=O)c1cnn(Cc2ccccc2)c1NS(=O)(=O)c1ccc(C)cc1 | 1.52
82 | NC1CCc2cc(OC(=O)c3ccccc3)c(OC(=O)c3ccccc3)cc2C1 (stereo not drawn) | 2.6
83 | C[C@@H](NC(=O)[C@H]1CCCCN1)c1ccc(Nc2ncc3cc(-c4ccncc4)ccc3n2)cc1 | 2.15
84 | COC(=O)c1c(C)[nH]c(C)c1C(=O)c1ccccc1Cl | 2.7
85 | CC(C)N(C(=O)C(c1cccnc1)C(CNC(=O)NCc1ccccc1F)c1ccccc1)C(C)C (stereo not drawn) | 4.2
86 | C[C@H](CO)Nc1nc(SCc2cccc(F)c2F)nc2nccnc12 | 3.15

Row | Compound | logD
87 | CN[C@@H](C)C(=O)N[C@H](C(=O)N[C@H]1CCCN(CCc2cccc(OC)c2)C1)C(C)(C)C | 1.47
88 | CC1(O)CN(S(=O)(=O)c2ccc3c(C(=O)NC[C@@H](O)CN4CCC(Oc5ccc(Cl)c(Cl)c5)CC4)c[nH]c(=O)c3c2)C1 | 2.54
89 | Cn1c(CN2CCN(c3ccc(Cl)cc3)CC2)nc2ccccc21 | 3.54
90 | Cc1c(CCC(=O)O)c(=O)oc2cc(O)ccc12 | -0.7
91 | Nc1cc2n[nH]c(=O)n2c2cc(-c3ccco3)ccc12 | 2.48
92 | COc1cc2ncnc(Nc3cc(Cl)ccc3F)c2cc1OCCCN1CCOCC1 | 3.4
93 | O=c1c(-c2ccc([N+](=O)[O-])cc2)coc2cc(O)cc(O)c12 | 3.24
94 | Cc1oc(S(C)(=O)=O)cc1-c1c2c(=O)n(C)c(=O)n(CC3CC3)c2nn1Cc1cn(C)c2ccc(Cl)cc12 | 4.48
95 | COc1ccc2nc(C)cc(-n3cc(CNC(C)=O)nn3)c2c1 | 1.6
96 | COC(=O)c1c(O)cccc1OC/C=C/c1ccc(F)c(-c2cc(C(=O)O)no2)c1 | 0.66
97 | CCCCC(NC(=O)CC1CCN(Cc2ccn(-c3ccc(C(F)(F)F)cc3)c2)CC1)c1ccc(=O)[nH]c1 (stereo not drawn) | 2.89
98 | C[C@@](O)(C(=O)Nc1ccc(S(=O)(=O)NCCCO)cc1Cl)C(F)(F)F | 2.1
99 | N=C(N)Nc1ccc(C(=O)Oc2ccc(Cl)cc2)cc1 | 0.7
100 | NC(=O)c1cnc(N[C@H]2CCCNC2)c2cc(-c3ccc(F)c(F)c3)sc12 | 2.17
101 | Cn1cncc1-c1c2c(=O)n(CC3CC3)c(=O)n(CC3CC3)c2nn1Cc1ccnc2ccc(Cl)cc12 | 4.33
102 | CCCc1c(OCCCOc2ccc3c(=O)cc(C(=O)O)oc3c2CCC)ccc(C(C)=O)c1O | 3
103 | CNC(=O)c1ccc(Nc2nccc(-c3cnc(C)n3C(C)C)n2)cc1 | 2.69
104 | Cc1cc(NC(=O)Nc2ccc(Cl)cc2)n(-c2ccccc2)n1 | 4.15
105 | CCC(c1nc2ccsc2c(=O)n1Cc1cscn1)N(CCCN)C(=O)c1ccc(C)cc1 (stereo not drawn) | 0.02
106 | O=C(NC[C@@H](O)CN1CCC(Oc2ccc(Cl)c(Cl)c2)CC1)c1c[nH]c(=O)c2ccc(F)cc12 | 3.93
107 | O=C1CCCCCN1 [CAPROLACTAM] | -0.08
108 | O=C(NCCCNc1nc(Nc2cccc(NC(=O)N3CCCC3)c2)ncc1Br)c1cccs1 | 4.13

From ChEMBL document CHEMBL3301361, “Experimental in vitro DMPK and physicochemical data on a set of publicly disclosed compounds”
